Experiment [1] concerns the target Proto-oncogene tyrosine-protein kinase Src (Gallus gallus, UniProt P00523). Briefly: Ability to prevent phosphorylation of avian c-Src TK.
The target of experiment [2] is Fibroblast growth factor receptor 1 (Homo sapiens, UniProt P11362).
Description: Ability to prevent phosphorylation of human fibroblast growth factor receptor 1
Experiment [3] concerns the target Platelet-derived growth factor receptor beta (Mus musculus, UniProt P05622). Nature of the experiment: Ability to prevent phosphorylation of isolated mouse PDGF receptor beta.

The source of these data is ChEMBL document CHEMBL1134497, “Soluble 2-substituted aminopyrido[2,3-d]pyrimidin-7-yl ureas. Structure-activity relationships against selected tyrosine kinases and exploration of in vitro and in vivo anticancer activity” (J Med Chem, 2001).

Chain of Fibroblast growth factor receptor 1 (P11362 whole entry): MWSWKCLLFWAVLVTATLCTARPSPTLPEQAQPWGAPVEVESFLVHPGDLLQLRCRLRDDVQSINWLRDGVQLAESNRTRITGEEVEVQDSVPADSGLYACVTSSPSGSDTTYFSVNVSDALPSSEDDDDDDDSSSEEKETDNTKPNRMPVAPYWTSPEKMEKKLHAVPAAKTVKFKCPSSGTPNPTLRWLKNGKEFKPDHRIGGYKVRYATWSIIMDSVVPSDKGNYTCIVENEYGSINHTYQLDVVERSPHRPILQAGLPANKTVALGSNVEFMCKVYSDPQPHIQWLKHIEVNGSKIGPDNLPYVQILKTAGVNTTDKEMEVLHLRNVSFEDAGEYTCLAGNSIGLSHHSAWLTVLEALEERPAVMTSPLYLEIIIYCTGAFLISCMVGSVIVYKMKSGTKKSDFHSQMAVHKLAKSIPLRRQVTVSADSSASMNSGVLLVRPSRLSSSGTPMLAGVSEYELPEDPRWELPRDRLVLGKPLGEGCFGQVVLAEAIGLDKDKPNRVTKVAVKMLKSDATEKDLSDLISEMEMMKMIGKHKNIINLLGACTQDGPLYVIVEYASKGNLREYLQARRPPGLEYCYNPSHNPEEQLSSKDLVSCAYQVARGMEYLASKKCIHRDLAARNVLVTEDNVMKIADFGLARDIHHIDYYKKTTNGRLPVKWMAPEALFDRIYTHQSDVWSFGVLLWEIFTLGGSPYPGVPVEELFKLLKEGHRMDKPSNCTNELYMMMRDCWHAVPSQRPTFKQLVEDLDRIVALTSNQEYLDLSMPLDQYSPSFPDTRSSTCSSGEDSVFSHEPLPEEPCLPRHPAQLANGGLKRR
Chain of Platelet-derived growth factor receptor beta (P05622 whole entry): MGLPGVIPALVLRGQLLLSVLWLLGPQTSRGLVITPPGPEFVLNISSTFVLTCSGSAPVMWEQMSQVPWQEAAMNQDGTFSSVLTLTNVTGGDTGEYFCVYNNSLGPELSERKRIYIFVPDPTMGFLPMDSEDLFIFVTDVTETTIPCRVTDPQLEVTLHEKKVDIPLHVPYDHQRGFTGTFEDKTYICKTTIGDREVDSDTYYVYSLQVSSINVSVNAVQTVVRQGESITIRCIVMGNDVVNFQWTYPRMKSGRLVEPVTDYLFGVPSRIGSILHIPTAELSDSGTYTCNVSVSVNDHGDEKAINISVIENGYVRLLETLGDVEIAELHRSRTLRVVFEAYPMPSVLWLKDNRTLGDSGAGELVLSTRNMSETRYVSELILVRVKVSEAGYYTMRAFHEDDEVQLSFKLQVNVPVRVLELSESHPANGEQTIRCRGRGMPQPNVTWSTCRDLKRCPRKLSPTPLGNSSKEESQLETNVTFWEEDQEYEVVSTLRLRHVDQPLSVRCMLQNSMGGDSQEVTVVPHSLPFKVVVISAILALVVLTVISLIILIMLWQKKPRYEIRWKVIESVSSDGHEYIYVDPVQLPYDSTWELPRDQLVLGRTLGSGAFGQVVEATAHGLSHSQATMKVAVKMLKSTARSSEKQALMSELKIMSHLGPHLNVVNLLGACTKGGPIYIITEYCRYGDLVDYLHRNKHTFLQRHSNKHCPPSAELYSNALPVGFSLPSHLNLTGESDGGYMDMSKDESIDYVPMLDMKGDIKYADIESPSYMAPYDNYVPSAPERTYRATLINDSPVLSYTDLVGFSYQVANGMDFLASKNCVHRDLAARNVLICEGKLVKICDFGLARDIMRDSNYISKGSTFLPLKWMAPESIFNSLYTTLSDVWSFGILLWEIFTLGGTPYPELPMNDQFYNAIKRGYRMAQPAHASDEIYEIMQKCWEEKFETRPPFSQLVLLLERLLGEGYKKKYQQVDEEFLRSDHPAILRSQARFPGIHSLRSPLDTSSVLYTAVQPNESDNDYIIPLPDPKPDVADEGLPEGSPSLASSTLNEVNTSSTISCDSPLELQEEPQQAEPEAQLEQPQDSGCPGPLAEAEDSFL

A word on the IC50: it is the concentration that inhibits the measured activity by half. `CCN(CC)CCCNc1ncc2cc(-c3c(C)cccc3C)c(NC(=O)NC(C)(C)C)nc2n1`: the half-maximal inhibitory concentration (IC50) amounted to 98 nM in experiment [1] and 340 nM in experiment [2]. In the case of `CN(C)CCCNc1ncc2cc(-c3c(Cl)cccc3Cl)c(NC(=O)NC(C)(C)C)nc2n1`, inhibition in experiment [1] was half-maximal at 120 nM (IC50). Regarding `CN1CCN(CCCNc2ncc3cc(-c4c(Cl)cccc4Cl)c(NC(=O)Nc4ccc(C(F)(F)F)cc4)nc3n2)CC1`, the values for the IC50 in experiment [3] and in experiment [1] were 5500 nM and 190 nM, respectively. Regarding `COc1ccc(NC(=O)Nc2nc3nc(NCCCN4CCN(C)CC4)ncc3cc2-c2c(Cl)cccc2Cl)cc1`, the IC50 in experiment [1] was 33 nM. In the case of `CCN(CC)CCCNc1ncc2cc(-c3c(Cl)cccc3Cl)c(NC(=O)NC(C)(C)C)nc2n1`, the IC50 in experiment [1] stood at 73 nM.

Take `CC(C)NC(=Nc1nc2nc(NCCCN3CCN(C)CC3)ncc2cc1-c1c(Cl)cccc1Cl)NC(C)C`: the 50% inhibitory concentration (IC50) in experiment [1] was 850 nM; in experiment [2], 2500 nM.

For the compound `COc1cc(OC)cc(-c2cc3cnc(N)nc3nc2NC(=O)NC(C)(C)C)c1`, the 50% inhibitory concentration (IC50) in experiment [2] turned out to be 48 nM. As for `CC(C)(C)NC(=O)Nc1nc2nc(N)ncc2cc1-c1c(Br)cccc1Br`, the 50% inhibitory concentration (IC50) was 1400 nM in experiment [3] and 210 nM in experiment [1]. Turning to `CCN(CC)CCCNc1ncc2cc(-c3c(Cl)cccc3Cl)c(N)nc2n1`, in experiment [1], half-maximal inhibition (IC50) required 750 nM. Turning to `CCNC(=O)Nc1nc2nc(NCCCN(CC)CC)ncc2cc1-c1c(Cl)cccc1Cl`, the 50% inhibitory concentration (IC50) in experiment [3] stood at 1300 nM; in experiment [1] it was 94 nM; in experiment [2], 130 nM. As to `CCCCCCCCNC(=O)Nc1nc2nc(NCCCN3CCN(C)CC3)ncc2cc1-c1c(Cl)cccc1Cl`, the IC50 in experiment [1] was 120 nM; in experiment [2], 420 nM. Take `CN1CCN(CCCNc2ncc3cc(-c4c(Cl)cccc4Cl)c(NC(=S)Nc4ccccc4)nc3n2)CC1`: the concentration for half-maximal inhibition (IC50) in experiment [3] is 2200 nM; in experiment [1] it was 22 nM; in experiment [2], 320 nM. For `CC1CCCCN1CCCNc1ncc2cc(-c3c(Cl)cccc3Cl)c(NC(=O)NC(C)(C)C)nc2n1` (stereo not given), the half-maximal inhibitory concentration (IC50) came to 730 nM in experiment [3] and 16 nM in experiment [1]. The like results for `CN1CCN(CCCCNc2ncc3cc(-c4c(Cl)cccc4Cl)c(NC(=O)NC(C)(C)C)nc3n2)CC1` were, in that order, 280 nM and 10 nM. Regarding `CC(C)(C)NC(=O)Nc1nc2nc(NCCCN3CCOCC3)ncc2cc1-c1c(Cl)cccc1Cl`, in experiment [1], the half-maximal inhibitory concentration (IC50) is 100 nM. As to `CN1CCN(CCCNc2ncc3cc(-c4c(Cl)cccc4Cl)c(NC(=O)Nc4cccc5ccccc45)nc3n2)CC1`, the values for the concentration for half-maximal inhibition (IC50) in experiment [1] and in experiment [2] were 130 nM and 300 nM, respectively. As to `CN1CCN(CCCNc2ncc3cc(-c4c(Cl)cccc4Cl)c(NC(=O)Nc4ccc(Br)cc4)nc3n2)CC1`, the IC50 came out at 1500 nM in experiment [3], 33 nM in experiment [1] and 110 nM in experiment [2]. For `Cc1cc(C)c(C)c(-c2cc3cnc(N)nc3nc2NC(=O)NC(C)(C)C)c1C`, the 50% inhibitory concentration (IC50) in experiment [3] and in experiment [1] was more than 50000 nM each time. In experiment [1], `COc1cc(OC)cc(-c2cc3cnc(N)nc3nc2N)c1` had a 50% inhibitory concentration (IC50) of more than 50000 nM. As for `CCN(CC)CCCNc1ncc2cc(-c3c(Cl)cccc3Cl)c(NC(=O)NC(C)C)nc2n1`, the half-maximal inhibitory concentration (IC50) in experiment [1] stood at 78 nM. `CC(C)(C)NC(=O)Nc1nc2nc(N)ncc2cc1-c1c(Cl)cccc1Cl`: the results for the concentration for half-maximal inhibition (IC50) in experiment [3] and in experiment [1] were 1200 nM and 220 nM, respectively. Turning to `Nc1ncc2cc(-c3c(Br)cccc3Br)c(N)nc2n1`, the IC50 in experiment [1] is 1600 nM. In the case of `CN1CCN(CCCNc2ncc3cc(-c4c(Cl)cccc4Cl)c(/N=C(/S)NC(C)(C)C)nc3n2)CC1`, the IC50 in experiment [1] came out at 220 nM; in experiment [2] it was 100 nM.

As for `Nc1ncc2cc(-c3c(Cl)cccc3Cl)c(N)nc2n1`, the IC50 in experiment [3] was found to be 16000 nM; in experiment [1], 210 nM. For `Cc1cccc(C)c1-c1cc2cnc(N)nc2nc1N`, the IC50 in experiment [3] is 29000 nM; in experiment [1], 430 nM; in experiment [2] it was 13000 nM.

On to `CC/N=C(\N)Nc1nc2nc(NCCCN(CC)CC)ncc2cc1-c1c(Cl)cccc1Cl`, for which the IC50 was more than 50000 nM in experiment [3], 1400 nM in experiment [1] and 2700 nM in experiment [2]. Regarding `COc1cccc(NC(=O)Nc2nc3nc(NCCCN4CCN(C)CC4)ncc3cc2-c2c(Cl)cccc2Cl)c1`, the results for the IC50 in experiment [3] and in experiment [1] were 910 nM and 29 nM, respectively.
